Consider two compounds from ChEMBL document CHEMBL5532655, “Discovery of (R)-4-(8-methoxy-2-methyl-1-(1-phenylethy)-1H-imidazo[4,5-c]quinnolin-7-yl)-3,5-dimethylisoxazole as a potent and selective BET inhibitor for treatment of acute myeloid leukemia (AML) guided by FEP calculation” (Eur J Med Chem, 2024).

The subject of data set [1] is MV4-11. In words: Induction of apoptosis in human MV4-11 cells assessed as early apoptotic cells at 1.25 uM incubated for 24 hrs by annexin V-FITC/PI staining based flow cytometric analysis (reference value: 0%). It is filed as functional.
A short description of data set [2]: AUC (0-t) in Sprague-Dawley rat at 1 mg/kg,iv administration measured upto 24 hrs by LC-MS/MS analysis. The note with it: in vivo. It is filed as ADME, organism-based.
A short description of data set [3]: Cmax in Sprague-Dawley rat at 10 mg/kg,po administration measured upto 24 hrs by LC-MS/MS analysis. It counts as ADME, organism-based. The note with it: in vivo.
Data set [4] can be described thus: AUC (0-infinity) in Sprague-Dawley rat at 10 mg/kg,po administration measured upto 24 hrs by LC-MS/MS analysis. It is filed as ADME, organism-based. Conditions: in vivo.
A short description of data set [5]: Oral bioavailability in Sprague-Dawley rat at 10 mg/kg measured upto 24 hrs by LC-MS/MS analysis. It counts as ADME, organism-based. Conditions: in vivo.
Data set [6] relates to MV4-11. Kind of data set: Induction of apoptosis in human MV4-11 cells assessed as viable cells at 0.625 uM incubated for 24 hrs by annexin V-FITC/PI staining based flow cytometric analysis (reference value: 97%). It counts as functional. Conditions: Homo sapiens, MV4-11, read-out: Activity.
The subject of data set [7] is MV4-11. In words: Induction of apoptosis in human MV4-11 cells assessed as late apoptotic cells at 5 uM incubated for 24 hrs by annexin V-FITC/PI staining based flow cytometric analysis (reference value: 0.04 %). It is filed as functional.
The test system of data set [8] is MV4-11. In words: Induction of apoptosis in human MV4-11 cells assessed as late apoptotic cells at 10 uM incubated for 24 hrs by annexin V-FITC/PI staining based flow cytometric analysis (reference value: 0.04 %). It counts as functional.
Data set [9] concerns MV4-11. Kind of data set: Induction of apoptosis in human MV4-11 cells assessed as necrotic cells at 0.625 uM incubated for 24 hrs by annexin V-FITC/PI staining based flow cytometric analysis (reference value: 2.35 %). It is filed as functional.
The subject of data set [10] is MV4-11. In words: Induction of apoptosis in human MV4-11 cells assessed as necrotic cells at 1.25 uM incubated for 24 hrs by annexin V-FITC/PI staining based flow cytometric analysis (reference value: 2.35 %). It is filed as functional.
For data set [11], the system named is MV4-11. In words: Induction of apoptosis in human MV4-11 cells assessed as necrotic cells at 10 uM incubated for 24 hrs by annexin V-FITC/PI staining based flow cytometric analysis (reference value: 2.35 %). It counts as functional.
The subject of data set [12] is MV4-11. In words: Induction of cell cycle arrest in human MV4-11 cells assessed as accumulation of cells at G0/G1 phase at 0.625 uM incubated for 24 hrs by propidium iodide staining flow cytometric analysis (reference value: 37.64 %). It counts as functional.
Data set [13] concerns MV4-11. Kind of data set: Induction of cell cycle arrest in human MV4-11 cells assessed as accumulation of cells at G0/G1 phase at 1.25 uM incubated for 24 hrs by propidium iodide staining flow cytometric analysis (reference value: 37.64 %). It is filed as functional.
The subject of data set [14] is MV4-11. Kind of data set: Induction of cell cycle arrest in human MV4-11 cells assessed as accumulation of cells at G2/M phase at 1.25 uM incubated for 24 hrs by propidium iodide staining flow cytometric analysis (reference value: 18 %). It counts as functional.
The test system of data set [15] is MV4-11. Kind of data set: Induction of cell cycle arrest in human MV4-11 cells assessed as accumulation of cells at G2/M phase at 2.5 uM incubated for 24 hrs by propidium iodide staining flow cytometric analysis (reference value: 18 %). It is filed as functional.
In data set [16] the test system is MV4-11. In words: Induction of apoptosis in human MV4-11 cells assessed as downregulation of CDK6 expression at 500 nM hrs by Western blotting analysis. Conditions: TDE = time-dependent effect. It is filed as functional, cell-based.
Data set [17] deals with Bromodomain testis-specific protein (Homo sapiens) (UniProt Q58F21). Kind of data set: Binding affinity to BRDT BD1 (unknown origin) using biotinylated histone peptide H4 as substrate at 1 uM incubated for 2 hrs by AlphaScreen assay relative to control.
The target in data set [18] is CREB-binding protein (Homo sapiens) (UniProt Q92793). Kind of data set: Binding affinity to CREBBP (unknown origin) using biotinylated histone peptide H4 as substrate at 1 uM incubated for 2 hrs by AlphaScreen assay relative to control.
For data set [19], the target named is Histone acetyltransferase p300 (Homo sapiens) (UniProt Q09472). The note with it: time 30.0 min.
In a further data set the target is T1, Peregrin (Homo sapiens) (UniProt P55201).
T1 sequence (whole entry): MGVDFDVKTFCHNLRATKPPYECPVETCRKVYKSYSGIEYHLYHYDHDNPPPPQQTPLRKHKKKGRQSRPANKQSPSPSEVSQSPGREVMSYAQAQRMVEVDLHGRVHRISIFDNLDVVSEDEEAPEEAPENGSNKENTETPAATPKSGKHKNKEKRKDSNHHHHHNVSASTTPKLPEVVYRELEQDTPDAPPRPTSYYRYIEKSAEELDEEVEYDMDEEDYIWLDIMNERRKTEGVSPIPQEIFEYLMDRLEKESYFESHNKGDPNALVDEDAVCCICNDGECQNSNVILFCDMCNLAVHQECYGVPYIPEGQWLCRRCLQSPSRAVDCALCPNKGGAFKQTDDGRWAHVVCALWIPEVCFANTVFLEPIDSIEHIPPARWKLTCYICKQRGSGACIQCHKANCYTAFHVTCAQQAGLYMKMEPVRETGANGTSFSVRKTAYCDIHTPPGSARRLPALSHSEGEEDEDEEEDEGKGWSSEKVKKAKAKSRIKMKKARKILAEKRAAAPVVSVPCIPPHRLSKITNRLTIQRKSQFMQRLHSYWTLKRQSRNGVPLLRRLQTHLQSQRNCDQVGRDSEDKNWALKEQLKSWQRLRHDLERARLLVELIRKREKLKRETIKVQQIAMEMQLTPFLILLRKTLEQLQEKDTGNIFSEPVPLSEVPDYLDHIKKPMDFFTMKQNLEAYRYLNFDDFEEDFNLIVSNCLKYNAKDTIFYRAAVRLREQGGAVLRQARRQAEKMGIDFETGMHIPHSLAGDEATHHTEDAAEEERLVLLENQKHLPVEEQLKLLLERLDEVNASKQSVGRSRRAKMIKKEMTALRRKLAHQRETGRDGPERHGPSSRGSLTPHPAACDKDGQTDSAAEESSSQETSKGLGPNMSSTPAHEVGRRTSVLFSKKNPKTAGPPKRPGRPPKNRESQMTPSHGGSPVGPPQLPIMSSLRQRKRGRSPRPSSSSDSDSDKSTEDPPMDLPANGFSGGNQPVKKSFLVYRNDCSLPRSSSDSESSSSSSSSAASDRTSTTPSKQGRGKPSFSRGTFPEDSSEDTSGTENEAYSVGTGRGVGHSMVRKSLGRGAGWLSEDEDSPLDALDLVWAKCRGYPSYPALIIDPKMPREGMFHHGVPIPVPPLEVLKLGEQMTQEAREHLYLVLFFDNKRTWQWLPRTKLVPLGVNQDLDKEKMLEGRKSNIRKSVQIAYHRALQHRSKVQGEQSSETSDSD
The note with it: time 30.0 min.

Data set [20] concerns the target Transcription initiation factor TFIID subunit 1 (Homo sapiens) (UniProt P21675). The note with it: time 30.0 min.
For a further data set, the system named is MOLM-13. In words: cells. The note with it: Homo sapiens, MOLM-13, 48 h.
A further data set has as its system MM1.S. In words: cells. Conditions: Homo sapiens, 48 h.

Chain of Transcription initiation factor TFIID subunit 1 (Homo sapiens) (P21675 whole entry): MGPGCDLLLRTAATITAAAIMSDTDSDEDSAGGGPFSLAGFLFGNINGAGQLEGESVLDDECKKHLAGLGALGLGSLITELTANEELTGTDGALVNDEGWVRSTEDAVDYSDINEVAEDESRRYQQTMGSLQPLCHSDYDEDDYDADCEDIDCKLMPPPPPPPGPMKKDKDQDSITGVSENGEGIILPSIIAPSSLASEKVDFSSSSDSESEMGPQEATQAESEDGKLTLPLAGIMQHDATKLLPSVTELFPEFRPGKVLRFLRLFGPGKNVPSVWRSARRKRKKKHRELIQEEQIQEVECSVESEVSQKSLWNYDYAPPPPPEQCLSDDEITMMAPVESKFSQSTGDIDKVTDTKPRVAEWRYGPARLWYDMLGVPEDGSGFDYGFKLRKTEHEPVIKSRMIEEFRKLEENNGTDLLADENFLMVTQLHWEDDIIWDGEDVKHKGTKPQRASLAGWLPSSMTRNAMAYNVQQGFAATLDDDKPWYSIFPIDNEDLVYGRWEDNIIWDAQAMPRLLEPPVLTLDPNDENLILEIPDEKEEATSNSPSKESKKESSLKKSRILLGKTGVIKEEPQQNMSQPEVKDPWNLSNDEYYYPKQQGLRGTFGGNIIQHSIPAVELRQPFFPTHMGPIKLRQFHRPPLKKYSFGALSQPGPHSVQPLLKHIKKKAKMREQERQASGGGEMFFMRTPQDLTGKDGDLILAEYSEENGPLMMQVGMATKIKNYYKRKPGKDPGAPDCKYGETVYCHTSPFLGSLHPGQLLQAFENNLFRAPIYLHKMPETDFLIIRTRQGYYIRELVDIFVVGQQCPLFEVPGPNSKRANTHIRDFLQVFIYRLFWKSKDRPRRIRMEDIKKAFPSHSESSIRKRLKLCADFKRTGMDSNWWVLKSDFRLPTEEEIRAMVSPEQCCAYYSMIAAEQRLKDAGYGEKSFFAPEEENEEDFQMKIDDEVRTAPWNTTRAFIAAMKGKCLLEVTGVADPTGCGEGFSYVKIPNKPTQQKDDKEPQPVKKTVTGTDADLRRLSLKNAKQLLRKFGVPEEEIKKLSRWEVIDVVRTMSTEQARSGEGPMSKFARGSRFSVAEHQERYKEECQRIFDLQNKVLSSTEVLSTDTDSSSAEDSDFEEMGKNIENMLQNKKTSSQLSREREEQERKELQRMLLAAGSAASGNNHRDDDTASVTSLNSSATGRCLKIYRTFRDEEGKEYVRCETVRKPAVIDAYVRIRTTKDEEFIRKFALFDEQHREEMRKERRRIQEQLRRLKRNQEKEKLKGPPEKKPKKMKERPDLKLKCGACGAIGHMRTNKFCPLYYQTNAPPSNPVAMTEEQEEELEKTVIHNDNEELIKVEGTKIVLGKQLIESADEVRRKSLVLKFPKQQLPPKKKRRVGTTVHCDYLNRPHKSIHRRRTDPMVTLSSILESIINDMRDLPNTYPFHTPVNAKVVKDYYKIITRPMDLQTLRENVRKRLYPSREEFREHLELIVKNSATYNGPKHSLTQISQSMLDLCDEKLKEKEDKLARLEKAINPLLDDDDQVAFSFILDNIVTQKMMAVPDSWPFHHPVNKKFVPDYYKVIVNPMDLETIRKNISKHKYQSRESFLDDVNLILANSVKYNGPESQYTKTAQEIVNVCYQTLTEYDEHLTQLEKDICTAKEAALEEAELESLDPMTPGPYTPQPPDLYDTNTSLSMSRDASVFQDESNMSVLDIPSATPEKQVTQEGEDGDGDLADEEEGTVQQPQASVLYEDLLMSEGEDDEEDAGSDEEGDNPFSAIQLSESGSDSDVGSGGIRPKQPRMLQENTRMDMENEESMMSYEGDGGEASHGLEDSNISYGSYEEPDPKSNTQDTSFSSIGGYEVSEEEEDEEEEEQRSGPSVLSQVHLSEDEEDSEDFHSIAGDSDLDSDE
Chain of CREB-binding protein (Homo sapiens) (Q92793 2-2442 limits assumed): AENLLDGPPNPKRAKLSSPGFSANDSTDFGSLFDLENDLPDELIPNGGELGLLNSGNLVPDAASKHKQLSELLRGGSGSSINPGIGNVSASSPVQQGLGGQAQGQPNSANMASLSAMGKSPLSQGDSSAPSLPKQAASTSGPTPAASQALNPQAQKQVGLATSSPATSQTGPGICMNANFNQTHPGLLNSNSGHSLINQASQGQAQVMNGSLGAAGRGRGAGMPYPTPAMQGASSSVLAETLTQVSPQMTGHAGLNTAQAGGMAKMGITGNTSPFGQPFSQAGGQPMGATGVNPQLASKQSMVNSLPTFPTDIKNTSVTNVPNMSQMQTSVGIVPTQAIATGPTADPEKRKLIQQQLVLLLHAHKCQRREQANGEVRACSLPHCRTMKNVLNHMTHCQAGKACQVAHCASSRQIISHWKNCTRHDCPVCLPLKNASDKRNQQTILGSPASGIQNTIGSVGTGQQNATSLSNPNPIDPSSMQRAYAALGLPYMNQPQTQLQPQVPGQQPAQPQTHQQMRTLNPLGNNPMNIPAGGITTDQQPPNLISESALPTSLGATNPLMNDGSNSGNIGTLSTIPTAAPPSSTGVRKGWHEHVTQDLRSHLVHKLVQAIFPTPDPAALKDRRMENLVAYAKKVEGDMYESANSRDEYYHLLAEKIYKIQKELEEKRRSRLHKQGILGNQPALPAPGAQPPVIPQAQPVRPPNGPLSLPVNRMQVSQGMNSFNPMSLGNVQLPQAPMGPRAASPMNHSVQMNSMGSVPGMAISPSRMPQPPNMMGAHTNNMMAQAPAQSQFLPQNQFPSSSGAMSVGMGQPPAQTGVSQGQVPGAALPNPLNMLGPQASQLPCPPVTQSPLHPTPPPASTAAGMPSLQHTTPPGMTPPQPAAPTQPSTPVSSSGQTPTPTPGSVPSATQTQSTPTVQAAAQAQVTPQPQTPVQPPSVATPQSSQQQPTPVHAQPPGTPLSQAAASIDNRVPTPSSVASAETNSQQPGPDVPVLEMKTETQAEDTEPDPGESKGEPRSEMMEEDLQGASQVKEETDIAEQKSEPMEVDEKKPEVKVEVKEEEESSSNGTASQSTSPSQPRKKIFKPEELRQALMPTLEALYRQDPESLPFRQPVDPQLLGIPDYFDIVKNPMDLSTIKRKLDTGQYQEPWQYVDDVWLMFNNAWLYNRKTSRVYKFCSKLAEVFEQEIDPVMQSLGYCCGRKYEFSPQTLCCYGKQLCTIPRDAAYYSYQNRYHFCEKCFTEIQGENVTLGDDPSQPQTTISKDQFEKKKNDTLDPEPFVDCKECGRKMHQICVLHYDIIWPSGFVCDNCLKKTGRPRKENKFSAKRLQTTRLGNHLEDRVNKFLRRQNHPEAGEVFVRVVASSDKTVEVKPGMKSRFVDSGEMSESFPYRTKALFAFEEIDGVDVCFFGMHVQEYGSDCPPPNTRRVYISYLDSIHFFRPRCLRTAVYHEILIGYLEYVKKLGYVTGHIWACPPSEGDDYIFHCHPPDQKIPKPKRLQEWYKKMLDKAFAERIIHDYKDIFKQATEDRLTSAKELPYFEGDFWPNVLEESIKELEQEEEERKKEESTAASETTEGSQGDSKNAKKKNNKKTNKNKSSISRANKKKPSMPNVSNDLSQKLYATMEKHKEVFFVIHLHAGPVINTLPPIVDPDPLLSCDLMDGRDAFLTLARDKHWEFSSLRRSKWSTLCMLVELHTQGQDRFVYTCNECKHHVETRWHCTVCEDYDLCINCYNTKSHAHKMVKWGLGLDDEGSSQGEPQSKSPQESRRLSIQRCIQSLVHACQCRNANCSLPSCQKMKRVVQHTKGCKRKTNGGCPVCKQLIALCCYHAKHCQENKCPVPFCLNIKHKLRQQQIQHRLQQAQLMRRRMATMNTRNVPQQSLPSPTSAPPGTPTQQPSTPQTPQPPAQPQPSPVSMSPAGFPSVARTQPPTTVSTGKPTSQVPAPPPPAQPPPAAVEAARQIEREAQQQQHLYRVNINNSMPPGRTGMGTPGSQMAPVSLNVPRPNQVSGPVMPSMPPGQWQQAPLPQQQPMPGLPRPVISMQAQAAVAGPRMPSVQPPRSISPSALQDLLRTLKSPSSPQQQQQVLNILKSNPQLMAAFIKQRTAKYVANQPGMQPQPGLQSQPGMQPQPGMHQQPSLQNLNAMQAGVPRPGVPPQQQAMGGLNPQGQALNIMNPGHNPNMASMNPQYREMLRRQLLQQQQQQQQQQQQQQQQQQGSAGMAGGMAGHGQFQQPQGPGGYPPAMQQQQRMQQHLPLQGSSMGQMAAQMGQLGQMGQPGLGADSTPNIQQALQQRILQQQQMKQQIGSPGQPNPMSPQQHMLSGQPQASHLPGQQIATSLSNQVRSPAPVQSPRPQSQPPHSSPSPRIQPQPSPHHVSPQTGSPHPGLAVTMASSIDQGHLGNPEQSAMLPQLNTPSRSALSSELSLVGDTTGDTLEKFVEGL
Description for MM1.S: Antiproliferative activity against human MM1.S cells assessed as inhibition of cell growth incubated for 48 hrs by MTT assay
Description for MOLM-13: Antiproliferative activity against human MOLM-13 cells assessed as inhibition of cell growth incubated for 48 hrs by MTT assay
Description for Peregrin (Homo sapiens): Binding affinity to BRPF1 (unknown origin) assessed as change in melting temperature incubated for 30 mins by SYPRO orange staining based thermal shift assay

`COc1cc2c(cc1-c1c(C)noc1C)ncc1nc(C)n([C@H](C)c3ccccc3)c12`: the Activity in the data set on MV4-11 [1] came out at 6.62%; in the data set with MV4-11 [7], 12.62%; in the data set on MV4-11 [8], 11.62%; in the data set with MV4-11 [9], 6%; in the data set on MV4-11 [10] it was 8%; with MV4-11 [11], 8%. Besides, the Activity in the data set with MV4-11 [12] is 61.2%; in the data set with MV4-11 [13] it was 71.52%; with MV4-11 [14] it was 5.16%; in the data set on MV4-11 [15] it was 7.33%; with MV4-11 [16], “Tde”; in [17] it was > 80%. Besides, in data set [18], the Activity was found to be 50%. Moreover, in data set [2], the area under the curve AUC(0-t) at 24 h was 1380 ng·h/mL. In addition, the peak concentration (Cmax) in [3] came out at 1780 ng/mL. In [4], the total exposure AUC(0-inf) stood at 16000 ng·h/mL. Moreover, the bioavailability in data set [5] was determined as 114%. Moreover, in the data set on MV4-11 [6], the viability at 0.625 µM was 68.2%. The ΔTm in [19] was determined as 5 °C; on Peregrin (Homo sapiens), 0 °C; in data set [20], 0 °C. Further, the half-maximal inhibitory concentration (IC50) in the data set on MOLM-13 was 430 nM; in the data set on MM1.S, 530 nM.
In the case of `COc1cc2c(cc1-c1c(C)n[nH]c1C)ncc1nc(C)n([C@H](C)c3ccccc3)c12`, the figures for the Activity in data set [17] and in [18] were 50% and < 30%, respectively. Moreover, the ΔTm (in [19]; on Peregrin (Homo sapiens); in [20]) was 0 °C each time. Also, the IC50 in the data set on MOLM-13 came out at 660 nM; with MM1.S, 480 nM.
